4 compounds from patent US11123355B2, “Antiviral benzyl-amine phosphodiamide compounds” (Merck Sharp & Dohme Corp., priority 2016, dated 2021) can be followed below.

Like-named read-outs stand apart in the source and are kept apart here.

By IC50 is commonly meant the concentration that gives 50% inhibition.

A short description of data set [1]: Pharmacokinetic Studies in Dogs - In Vivo Dog PK. Details: species or system beagle dogs. As to conditions: dog PBMCs at 24 h following a 10 mg/kg P.O. dose of the prodrug. The procedure: Pharmacokinetic Studies in Dogs—In Vivo Dog PK
Prodrugs were administered to beagle dogs through intravenous (IV) and oral (P.O.) administrations in a non-crossover manner. The IV dose was prepared in 20% hydroxypropyl β-cyclodextrin (HPBCD) or polyethylene glycol 200:ethanol:water (70:10:20 v/v/v). The dose was administered via cephalic or saphenous vein. The P.O. dose was prepared in 10% polysorbate 80 (Tween 80) and was administered via gavage.
Blood samples were serially collected following dose administration for up to 48 hr and plasma was separated by centrifugation. The concentrations of prodrugs in dog plasma were determined by a LC-MS/MS assay following a protein precipitation step and addition of an appropriate internal standard (labetalol, imipramine or diclofenac). Quantification was done by determining peak area-ratios of the prodrugs and tenofovir to the internal standard. Additional blood sample(s) was collected following dose administration for up to 24 hr. […] The concentrations of tenofovir and/or its phosphate conjugate(s) in PBMCs were determined by an LC-MS/MS assay following a protein precipitation step and addition of an appropriate internal standard (labetalol, imipramine or diclofenac). Quantification was done by determining peak area-ratios of tenofovir and/or its phosphate conjugate(s) to the internal standard.
Pharmacokinetic parameters were obtained using non-compartmental methods (Watson®). The area under the plasma concentration-time curve (AUC0-t) was calculated from the first time point (0 min) up to the last time point with measurable drug concentration using the linear trapezoidal or linear/log-linear trapezoidal rule. The IV plasma clearance was calculated by dividing the dose by AUC0-inf. The terminal half-life of elimination was determined by unweighted linear regression analysis of the log-transformed data. […] The volume of distribution at steady state (Vdss) was obtained from the product of plasma clearance and mean residence time (determined by dividing the area under the first moment curve by the area under the curve). […]

The nature of data set [2]: Prodrug Stability Assay in Bio-Relevant Media (FaSSIF with Pancreatin). The data set is classed as in vitro ADME. Conditions: 0.5 mg/mL Pancreatin in FaSSIF, 37° C.; HPLC peak area of prodrug at 5 h divided by that at 0 h. The protocol: Prodrug Stability Assay in Bio-Relevant Media
The following assay was employed to evaluate the stability of the prodrugs in simulated gastrointestinal tract conditions. Preparation of fasted state simulated intestinal fluid (FaSSIF) using Phares SIF Powder was carried out according to protocols from Phare Drug Delivery AG (Baselland, Switzerland). For sample preparation, 10 μL stock solutions (10 mM) of prodrug substance in DMSO was added to 990 μL of 0.5 mg/mL Pancreatin solution (Fisher CAS #8049-47-6) in FaSSIF. Two samples were prepared for each compound. If the sample was a clear solution, it was directly analyzed by HPLC. If the sample was not clear, the sample was diluted with 100% MeCN, maintained at 37° C. and observed 5 h later. If the sample was clear, HPLC analysis was directly performed. If the sample was still not clear, the sample was diluted with 100% ACN and assayed by HPLC. All the samples were vortexed for 3 min and observed before injection. For the diluted samples, the area is multiplied by a dilution factor when the data is analyzed. The analysis was carried out with an Agilent 1100 series HPLC with autosampler. The column was a Poroshell 120 EC-C18, 4.6×50 mm, 2.7 μm. The flow rate was 1.8 mL/min, and the injection volume was 5 or 10 μL. UV detection was in the range 210-400 nm. The mobile phase consisted of solvent A (water plus 10 mM tetrabutylammonium bromide) and solvent B (acetonitrile) with a gradient of: 90% solvent A at 0 min, changing to 95% solvent B over 6 min, maintaining for 1.5 min, then reverting to 90% solvent A over 1.6 min. The HPLC peak area of the prodrug at 5 h was divided by the HPLC peak area of the prodrug at 0 h, to generate the % claimed parent ratio, which is summarized in Table 2 for gastrointestinal (GI) Tract stability.

The subject of data set [3] is HIV-1 (H9/IIB strain). Briefly: Multiple Round HIV-1 Infection Assay (Viking Assay) in MT4-GFP cells. In kind it is cell-based. As to conditions: inhibition of reproductive ratio R0. The essentials: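 MT-4 cells with tat/rev-dependent GFP reporter infected overnight with virus at MOI ~0.01, then incubated in RPMI with 10% or 50% normal human serum with 10-point 3-fold dilutions (typically 8.4 μM–0.42 nM final). Green cells counted at ~48 and ~72 h to give R0; IC50 from 4-parameter fit of R0 inhibition.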

[4] abbreviates: MT4-GFP cells infected with HIV-1, 10% normal human serum, read-out: Viking, IC50 (10% NHS).
Where [5] appears, read: MT4-GFP cells infected with HIV-1, 50% normal human serum, read-out: Viking, IC50 (50% NHS).

With “propyl 2-(((R)-((((R)-1-(6-amino-9H-purin- 9-yl)propan-2-yl)oxy)methyl)((4- isopropylbenzyl)amino)phosphoryl)amino)- 2-methylpropanoate and propyl 2-(((S)-((((R)-1-(6-amino-9H-purin- 9-yl)propan-2-yl)oxy)methyl)((4- isopropylbenzyl)amino)phosphoryl)amino)- 2-methylpropanoate [Example 5A]”, the “In Vivo Dog PK (μM): TFV-DP concentrations in dog PBMCs” value in data set [1] is 7.7 µM. In addition, the “GI Tract stability (%)” value in data set [2] came to 96.3%. In addition, the half-inhibitory concentration (IC50) amounted to 3.1 nM in data set [3] (setting [4]) and 17 nM in data set [3] (setting [5]).
`CCCOC(=O)C(C)(C)N[P@@](=O)(CO[C@H](C)Cn1cnc2c(N)ncnc21)N[C@H](c1ccc(OC(F)(F)F)cc1)C(F)(F)F` (single isomer, unassigned) [Example 27A]: the “In Vivo Dog PK (μM): TFV-DP concentrations in dog PBMCs” value in data set [1] worked out at 0.8 µM. Besides, the “GI Tract stability (%)” value in data set [2] is recorded as 79.5%. The concentration for half-maximal inhibition (IC50) came to 1.4 nM in data set [3] (setting [4]) and 6.7 nM in data set [3] (setting [5]).
On the same counts, the results for `CCCOC(=O)C(C)(C)NP(=O)(CO[C@H](C)Cn1cnc2c(N)ncnc21)N[C@@H](C)c1ccc(Cl)cc1` (stereo partly drawn) [Example 13A, propyl 2-(((R)-((((R)-1-(6-amino-9H-purin-9-yl)propan-2-yl)oxy)methyl)(((S)-1-(4-chlorophenyl)ethyl)amino)phosphoryl)ami-no)-2-methylpropanoate and propyl 2-(((S)-((((R)-1-(6-amino-9H-purin-9-yl)propan-2-yl)oxy)methyl)(((S)-1-(4-chlorophenyl)ethyl)amino)phosphoryl)ami-no)-2-methylpropanoate] are 15.9 µM, 98.5%, 8.4 nM and 75 nM.
Regarding `CCCOC(=O)C(C)(C)NP(=O)(CO[C@H](C)Cn1cnc2c(N)ncnc21)N[C@H](C)c1ccc(C#N)cc1` (stereo partly drawn) [Example 31B, propyl 2-(((R)-((((R)-1-(6-amino-9H-purin-9-yl)propan-2-yl)oxy)methyl)(((R)-1-(4-cyanophenyl)ethyl)amino)phosphoryl)ami-no)-2-methylpropanoate and propyl 2-(((S)-((((R)-1-(6-amino-9H-purin-9-yl)propan-2-yl)oxy)methyl)(((R)-1-(4-cyanophenyl)ethyl)amino)phosphoryl)ami-no)-2-methylpropanoate], the “GI Tract stability (%)” value in data set [2] was 90.6%. In addition, the IC50 in data set [3] (setting [4]) is 8.8 nM; in data set [3] (setting [5]), 110 nM.
